Marks after values point to notes of the source that are not given here.
What was measured:
Type in all cases: cell-based, Human
A172 cells [1] = test: Transwell assay, A172 cell invasion; settings: 24 hours; F4 12 μg/mL, F5 10 μg/mL, Doxo 0.5 μg/mL
Procedure: Transwell assay—Cells were seeded in the upper chamber of a 24-well plate containing insert with an 8-μm pore size membrane (BD, Falcon Cat #353097), at a density of 5×10^4 in 250 μL complete medium and were incubated at 37° C. for 60 minutes to recover. Following, cells were treated and incubated for 24 hours followed by viability test with resazurin (AR002, R&D Systems, USA). The inserts were taken out of the medium, the inner part was wiped using a cotton swab to remove the detached cells. The inserts were transferred into a new 24-well plate, fixated using 70% ethanol for 10 minutes and dried for 50 minutes, followed by staining in 400 μL of 0.2% crystal violet, washing with PBS, and drying for 5 minutes. Cells stained underneath the membrane were counted in inverted microscope in 3-5 different fields.

A172 cells [2] = test: Scratch-wound assay, A172 cell migration; settings: 36 hours; F4 20, F4-SM 11.5, F5 20, F5-SM 11.5, Doxo 0.5 μg/mL
Procedure: Scratch-wound assay—A172 cells were seeded in a 96-well plate at a density of 2×10^4 per well in 100 μL of complete medium. Following 24 hours, cells in each well were scratched perpendicularly across the center of the well with a 200 μL pipette tip to produce a cell-free area for investigating the ability of the cells to migrate and close the gap under different treatments. Immediately following scratching, 100 μL of treatment solution was added. Photos were taken by a CARL ZEISS inverted microscope coupled with a camera at 0, 14, 20, and 36 hours following scratching, and the gap area was measured using ImageJ (version 1.53a). The scratch area, indicated by cells migrated into the scratch was calculated as percent of scratch area at time x from time 0: […]

A172 cells [3] = test: Cell cycle analysis, PI staining, FACS, A172; settings: 24 hours; SM 10 μg/mL, Doxo 0.5 μg/mL; control 10.2%
Procedure: Cell cycle analysis—A172 cells were seeded in 6-well TC plate at a concentration of 4×10^5 cells in 2 mL of SFM per well. Following 24 hours incubation, cells were treated with indicated treatments in complete medium for 24 hours. Methanol and doxorubicin were used as negative and positive controls, respectively. Cells were harvested and centrifuged for 5 minutes at 1600 rpm. Cell pellets were washed once with 1 mL of PBS and fixed with 70% cold ethanol overnight at −20° C. The fixed cells were washed twice with 1 mL of PBS and stained with 250 μL of PI solution (50 μg/mL) containing RNase A (100 μg/mL) for 30 minutes in dark conditions. 250 μL PBS was added to each tube and the cells were analyzed using FACS.

U87 cells = test: 3D models (hydrogel) of U87 cells: colonies and Alamar Blue viability; settings: U87 from 3D structures, 48 hours; Doxorubicin 2, F4 20, F4-SM 12.5, F5 16.5, F5-SM 10 μg/ml; control 98.52
Procedure: 3D models—Hydrogels (AGFCH) included Sigma-Aldrich products and were prepared using alginate (W201502; Sigma-Aldrich, USA) 22.5 mg/mL, gelatin (G9764; Bio-Basic, USA) 45 mg/mL, fibrinogen (F38791; Sigma-Aldrich, USA) 50 mg/mL, collagen (C9791; Sigma-Aldrich, USA) 2.2 mg/mL and hyaluronic acid (O8185; Sigma-Aldrich, USA) 2 mg/mL in PBS-glycerol solvent. The gel (AGFCH) was mixed with U87 cells at a concentration of 2×10^6 cells per 400 μL gel. The solutions were mixed gently and transferred as 25 μL of gel solution to a 24-well plate. 3D models were cross-linked using CaCl2 (A610050; Bio-Basic, USA) and thrombin (SRP6557; Sigma-Aldrich, USA) for 5 minutes, following the 3D structure was washed with PBS and then immersed in 1 mL of EMEM complete medium. Cells in the 3D structures were allowed to grow for 2 days and then the indicated treatments were administered for 8 days (treatments were repeated every 2 days). Structures were stained using EasyProbe Hoechst, as described above. To assess cell viability, the 3D structure was digested using 200 μL of 0.05M sodium citrate (C3434; Sigma-Aldrich, USA) and 0.05M EDTA (03-052-1A; Biological Industries, Israel) solution for 5 minutes. […] Percentage of colony in the different treatments was calculated out of average number of colonies in the control.

SMILES: COc1cccc2c1C(=O)c1c(O)c3c(c(O)c1C2=O)C[C@@](O)(C(=O)CO)C[C@@H]3O[C@H]1C[C@H](N)[C@H](O)[C@H](C)O1 [Doxorubicin]
- reduction of cell invasion relative to vehicle control (A172 cells [1]): 22.5%
- inhibition of cell migration in comparison to the vehicle control (A172 cells [2]): 28.8%
- percentage of cells in the G2-M phase (A172 cells [3]): 11.6%
- Mean (% of Live cells) (U87 cells): 37.22 ± 3.08^c %
